Source: patent US20040254173A1, “Modulation of dopamine responses with substituted (S)-2,3-benzodiazepines” (priority 2003, published 2004)

Test system: apomorphine-induced hypothermia, stereotypies and climbing
Test: Low Dose Apomorphine Test in the mouse
Format: in vivo
Conditions: for STEREOTYPY (intensity score), 20 min after apomorphine, mean ± s.e.m. / STEREOTYPY (intensity score), 50 min after apomorphine, mean ± s.e.m.: 4 point scale (0-3); for CLIMBING (No. of mice), 20 minutes after apomorphine / CLIMBING (No. of mice), 50 minutes after apomorphine: 6 mice per group; for Rectal Temperature, 30 min after apomorphine, mean ± s.e.m. / Rectal Temperature, 60 min after apomorphine, mean ± s.e.m. / Rectal Temperature, before apomorphine, mean ± s.e.m. / effect on apomorphine-induced hypothermia: mouse; for Rectal Temperature, 30 min after apomorphine, mean change from control / Rectal Temperature, 60 min after apomorphine, mean change from control / STEREOTYPY (intensity score), 20 min after apomorphine, mean change from control / STEREOTYPY (intensity score), 50 min after apomorphine, mean change from control: vs vehicle
Excerpt: Racemic tofisopam, (R)-tofisopam and (S)-tofisopam were investigated in the Low Dose Apomorphine Test in the mouse to evaluate their pro- or anti-dopaminergic activity following intraperitoneal (i.p.) administration of apomorphine. Apomorphine, at a low dose, induces hypothermia, stereotypies and climbing. All three of these symptoms are potentiated by dopaminergic agonists and antagonized by dopamine antagonists, such as classical neuroleptics. The Low Dose Apomorphine Test, thus serves to detect pro- or antidopaminergic activity. The test was performed according to the protocols described by Chermat and Poncelet. See, Chermat R., Poncelet M., “Antagonisme des redressements, des stéréotypies et de l'hypotheimie induits par 1 ou 16 mg.kg-1 d'apomorphine,” J. Pharmacol., 14, 93-97, 1983.
Male mice of Rj: NMRI strain, 23-26 g body weight range were supplied by Elevage Janvier, 53940 Le Genest-Saint-Isle, France. The animals were delivered to the laboratory at least 3 days before the experiment and, upon arrival, were housed 10 per cage in macrolon cages (25×19×13 cm) containing wood shavings (Litalabo-SPPS, 95100 Argenteuil, France) with free access to food (UAR 113-UAR, 91360 Epinay-sur-Orge, France) and tap water (i.e. non-fasted) until tested. The animal house was maintained under artificial lighting (12 hours) between 7.00 and 19.00 in a controlled ambient temperature of 21±1° C., and relative humidity maintained at 40-70%.
The different treatments were equally distributed between the animals. During the experiment, each animal within a cage received the same treatment. Animals within a cage were individually marked on the tail with an indelible pen.
The experiment was conducted blind with treatment vials labeled A, B, C etc., according to a standardized coding procedure. The evaluation of the different treatments was balanced over time by testing successive series of individual animals from each treatment group in a fixed rotation (A, B, C, etc.). Animals were sacrificed at the end of the experiment by exposure to CO2.
Three compounds, racemic tofisopam, (R)-tofisopam and (S)-tofisopam were tested in the Low Dose Apomorphine Test. Each of these three compounds was dosed as a dispersion in 0.2% hydroxypropylmethylcellulose (HPMC) (Sigma), in sterile physiological saline (Laboratoire Aguettant).
Two reference standards were also dosed. Bromocriptine, methanesulfonate (Sigma), a known dopamine agonist, and haloperidol (Sigma), a known dopamine antagonist, were dispersed in 0.2% HPMC in sterile physiological saline.
Apomorphine hydrochloride, the dopamine mimetic employed in the assay, was dissolved in water for injectable preparation (Laboratoire Aguettant). Dosing: All of the dosed substances were administered in a volume of 10 ml/kg. The doses are expressed in mg/kg of supplied substance.
6 mice were studied per group. The test was performed blind.
Racemic tofisopam, (R)-tofisopam and (S)-tofisopam were administered at doses of 16, 32 and 64 mg/kg, administered intraperitonealy (i.p.), 30 minutes prior to administration of apomorphine.
The rectal temperature of the mice was measured prior to apomorphine dosing using a rectal probe (Physitemp Instruments Digital Laboratory Thermometer Model BAT-12). The mice were then placed in individual Plexiglas cages (10×6×4 cm) attached with the opening against a vertical wire grid.
The mice were then injected subcutaneously (s.c.) with apomorphine (1 mg/kg). Rectal temperature was measured 30 and 60 minutes after the injection of apomorphine.
The intensity of stereotypies (sniffing, licking, gnawing), were scored at 20 minutes and 50 minutes after injection of apomorphine on a 4 point scale (0-3). The presence (1) or absence (0) of climbing against the wire grid wall, were also assessed 20 and 50 minutes after injection of apomorphine.
The reference standards bromocriptine (16 mg/kg) and haloperidol (0.5 mg/kg), were administered under the same experimental conditions.

[1] = 16 mg/kg i.p. 30 min before apomorphine 1 mg/kg s.c.
[2] = 16 mg/kg i.p., 30 min after test substance
[3] = 32 mg/kg i.p. 30 min before apomorphine 1 mg/kg s.c.
[4] = 32 mg/kg i.p., 30 min after test substance
[5] = 64 mg/kg i.p. 30 min before apomorphine 1 mg/kg s.c.
[6] = 64 mg/kg i.p., 30 min after test substance
[7] = 0.5 mg/kg, before apomorphine 1 mg/kg s.c.

Row | Compound | STEREOTYPY (intensity score), 20 min after apomorphine, mean ± s.e.m. [1] | STEREOTYPY (intensity score), 50 min after apomorphine, mean ± s.e.m. [1] | CLIMBING (No. of mice), 20 minutes after apomorphine [1] | CLIMBING (No. of mice), 50 minutes after apomorphine [1] | Rectal Temperature, 30 min after apomorphine, mean ± s.e.m. [1] | Rectal Temperature, 60 min after apomorphine, mean ± s.e.m. [1] | Rectal Temperature, 30 min after apomorphine, mean change from control [1] | Rectal Temperature, 60 min after apomorphine, mean change from control [1] | STEREOTYPY (intensity score), 20 min after apomorphine, mean change from control [1] | STEREOTYPY (intensity score), 50 min after apomorphine, mean change from control [1] | Rectal Temperature, before apomorphine, mean ± s.e.m. [2] | STEREOTYPY (intensity score), 20 min after apomorphine, mean ± s.e.m. [3] | STEREOTYPY (intensity score), 50 min after apomorphine, mean ± s.e.m. [3] | CLIMBING (No. of mice), 20 minutes after apomorphine [3] | CLIMBING (No. of mice), 50 minutes after apomorphine [3] | Rectal Temperature, 30 min after apomorphine, mean ± s.e.m. [3] | Rectal Temperature, 60 min after apomorphine, mean ± s.e.m. [3] | Rectal Temperature, 30 min after apomorphine, mean change from control [3] | Rectal Temperature, 60 min after apomorphine, mean change from control [3] | STEREOTYPY (intensity score), 20 min after apomorphine, mean change from control [3] | also measured
1 | CC[C@H]1C(C)=NN=C(c2ccc(OC)c(OC)c2)c2cc(OC)c(OC)cc21 [(R)-tofisopam, (R)-1-(3,4-dimethoxyphenyl)-4-methyl-5-ethyl-7,8-dimethoxy-5H-2,3-benzodiazepine] | 2.8 ± 0.2 | 1.0 ± 0.3 | 6 No. of mice | 5 No. of mice | 35.1 ± 0.3 °C | 36.9 ± 0.2 °C | 0.0 °C | +0.2 °C | +0.6 | 0.0 | 37.3 ± 0.1 °C | 2.2 ± 0.2 | 1.0 ± 0.3 | 6 No. of mice | 4 No. of mice | 34.6 ± 0.4 °C | 36.6 ± 0.2 °C | −0.5 °C | −0.1 °C | 0.0 | STEREOTYPY (intensity score), 50 min after apomorphine, mean change from control [3]: 0.0; Rectal Temperature, before apomorphine, mean ± s.e.m. [4]: 37.1 ± 0.1 °C; STEREOTYPY (intensity score), 20 min after apomorphine, mean ± s.e.m. [5]: 1.5 ± 0.6; STEREOTYPY (intensity score), 50 min after apomorphine, mean ± s.e.m. [5]: 1.2 ± 0.3; CLIMBING (No. of mice), 20 minutes after apomorphine [5]: 3 No. of mice; CLIMBING (No. of mice), 50 minutes after apomorphine [5]: 2 No. of mice; Rectal Temperature, 30 min after apomorphine, mean ± s.e.m. [5]: 35.1 ± 0.4 °C; Rectal Temperature, 60 min after apomorphine, mean ± s.e.m. [5]: 36.5 ± 0.4 °C; Rectal Temperature, 30 min after apomorphine, mean change from control [5]: 0.0 °C; Rectal Temperature, 60 min after apomorphine, mean change from control [5]: −0.2 °C; STEREOTYPY (intensity score), 20 min after apomorphine, mean change from control [5]: −0.7; STEREOTYPY (intensity score), 50 min after apomorphine, mean change from control [5]: +0.2; Rectal Temperature, before apomorphine, mean ± s.e.m. [6]: 37.2 ± 0.1 °C; effect on apomorphine-induced hypothermia (16, 32 and 64 mg/kg i.p.): did not affect; effect on apomorphine-induced hypothermia, stereotypies or climbing (dose-range tested (16, 32, 64 mg/kg i.p.)): did not affect
2 | CC[C@@H]1C(C)=NN=C(c2ccc(OC)c(OC)c2)c2cc(OC)c(OC)cc21 [(S)-tofisopam, (S)-1-(3,4-dimethoxyphenyl)-4-methyl-5-ethyl-7,8-dimethoxy-5H-2,3-benzodiazepine] | 3.0 ± 0.0 | 0.7 ± 0.2 | 6 No. of mice | 3 No. of mice | 34.8 ± 0.4 °C | 37.2 ± 0.2 °C | −0.3 °C | +0.5 °C | +0.8 | −0.3 | 37.2 ± 0.3 °C | 2.3 ± 0.3 | 0.3 ± 0.2 | 6 No. of mice | 2 No. of mice | 34.4 ± 0.3 °C | 36.6 ± 0.2 °C | −0.7 °C | −0.1 °C | +0.1 | behaviour on apomorphine-induced hypothermia (rectal temperature) (16 mg/kg, sixty minutes after apomorphine, slight but statistically significant elevation in temperature): weak dopamine antagonist; behaviour on apomorphine-induced stereotypies (16 mg/kg, twenty minute time point): strong dopamine agonist; STEREOTYPY (intensity score), 50 min after apomorphine, mean change from control [3]: −0.7; Rectal Temperature, before apomorphine, mean ± s.e.m. [4]: 37.0 ± 0.2 °C; STEREOTYPY (intensity score), 20 min after apomorphine, mean ± s.e.m. [5]: 0.2 ± 0.2; STEREOTYPY (intensity score), 50 min after apomorphine, mean ± s.e.m. [5]: 0.2 ± 0.2; CLIMBING (No. of mice), 20 minutes after apomorphine [5]: 0+ No. of mice; CLIMBING (No. of mice), 50 minutes after apomorphine [5]: 0 No. of mice; Rectal Temperature, 30 min after apomorphine, mean ± s.e.m. [5]: 33.6 ± 0.7 °C; Rectal Temperature, 60 min after apomorphine, mean ± s.e.m. [5]: 33.3 ± 1.0 °C; Rectal Temperature, 30 min after apomorphine, mean change from control [5]: −1.5 °C; Rectal Temperature, 60 min after apomorphine, mean change from control [5]: −3.4 °C; STEREOTYPY (intensity score), 20 min after apomorphine, mean change from control [5]: −2.0; STEREOTYPY (intensity score), 50 min after apomorphine, mean change from control [5]: −0.8; Rectal Temperature, before apomorphine, mean ± s.e.m. [6]: 37.2 ± 0.2 °C; behaviour on apomorphine-induced stereotypies and climbing (64 mg/kg, twenty and fifty minute time points): strong dopamine antagonist; behaviour on apomorphine-induced hypothermia (rectal temperature) (higher doses (32, 64 mg/kg), thirty and sixty minute time points, lowering the rectal temperature): dopamine antagonism
3 | O=C(CCCN1CCC(O)(c2ccc(Cl)cc2)CC1)c1ccc(F)cc1 [Haloperidol, haloperidol] | – | – | – | – | – | – | – | – | – | – | – | – | – | – | – | – | – | – | – | – | effect on apomorphine-induced stereotypies and climbing as well as hypothermia (0.5 mg/kg): significantly antagonized; STEREOTYPY (intensity score), 20 min after apomorphine, mean ± s.e.m. [7]: 0.0 ± 0.0; STEREOTYPY (intensity score), 50 min after apomorphine, mean ± s.e.m. [7]: 0.0 ± 0.0; CLIMBING (No. of mice), 20 minutes after apomorphine [7]: 0+ No. of mice; CLIMBING (No. of mice), 50 minutes after apomorphine [7]: 1 No. of mice; Rectal Temperature, 30 min after apomorphine, mean ± s.e.m. [7]: 37.0 ± 0.1 °C; Rectal Temperature, 60 min after apomorphine, mean ± s.e.m. [7]: 37.7 ± 0.1 °C; Rectal Temperature, 30 min after apomorphine, mean change from control [7]: +1.9 °C; Rectal Temperature, 60 min after apomorphine, mean change from control [7]: +1.0 °C; STEREOTYPY (intensity score), 20 min after apomorphine, mean change from control [7]: −2.2; STEREOTYPY (intensity score), 50 min after apomorphine, mean change from control [7]: −1.0; Rectal Temperature, before apomorphine, mean ± s.e.m. (0.5 mg/kg): 37.3 ± 0.1 °C; effect on apomorphine-induced hypothermia (0.5 mg/kg): significantly antagonized
4 | Bromocriptine, methanesulfonate | 2.7 ± 0.2 | 1.0 ± 0.4 | 6 No. of mice | 2 No. of mice | 34.4 ± 0.4 °C | 35.0 ± 0.5 °C | −0.7 °C | −1.7 °C | +0.5 | 0.0 | 37.2 ± 0.2 °C | – | – | – | – | – | – | – | – | – | effect on apomorphine-induced stereotypies or climbing (16 mg/kg): did not significantly affect; effect on apomorphine-induced hypothermia (16 mg/kg): significantly potentiated
